In US11377442B2, “Small molecule agonists and antagonists of NR2F6 activity” (ZANDER THERAPEUTICS, INC., priority 2016, dated 2022):
Where two headings read alike, the source gives them in different places.

Key:
Type in all cases: cell-based
NR2F6 = target: T1, NR2F6 (Homo sapiens, UniProt P10588); test: NR2F6 agonist screening, Firefly signal cmpd/DMSO; settings: for Firefly F4, cmpd/DMSO (mean): Table 14; for Firefly, cmpd/DMSO repeat 1 / Firefly, cmpd/DMSO repeat 2: first set screening, 10 μM
T1 construct: expressed in transfected cells; also transient transfection
T1 sequence (P10588 1-404): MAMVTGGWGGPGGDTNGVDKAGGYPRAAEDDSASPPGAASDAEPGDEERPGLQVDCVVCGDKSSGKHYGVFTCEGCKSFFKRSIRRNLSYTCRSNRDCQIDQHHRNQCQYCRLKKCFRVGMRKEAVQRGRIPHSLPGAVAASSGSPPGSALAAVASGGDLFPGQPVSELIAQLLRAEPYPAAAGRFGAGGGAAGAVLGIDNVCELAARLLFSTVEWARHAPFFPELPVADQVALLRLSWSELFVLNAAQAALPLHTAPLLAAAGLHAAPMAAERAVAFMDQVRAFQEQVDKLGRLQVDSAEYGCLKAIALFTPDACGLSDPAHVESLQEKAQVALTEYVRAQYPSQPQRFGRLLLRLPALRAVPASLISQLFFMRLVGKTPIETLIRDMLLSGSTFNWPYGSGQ

Renilla = Renilla signal in NR2F6 agonist screening, cmpd/DMSO; settings: for fold induction at 2 µM / fold induction at 10 µM / fold induction at 40 µM: Renilla
HEK293 pGL4 = test: Firefly_pGL signal, cmpd/DMSO (pGL4 control cells); settings: Homo sapiens, HEK293, Table 14, read-out: Firefly pGL4, cmpd/DMSO (mean)
Renilla_ERa = test: Renilla signal in ERα counterscreen (Renilla_ERa); settings: ERα transient transfection, 10 μM
ERα = target: T2, ERα (Homo sapiens, UniProt P03372); test: Counterscreening, Firefly signal with ERα transient transfection (Firefly_ERa); settings: ERα transient transfection, 10 μM
T2 construct: expressed in transfected cells
T2 sequence (P03372 1-595): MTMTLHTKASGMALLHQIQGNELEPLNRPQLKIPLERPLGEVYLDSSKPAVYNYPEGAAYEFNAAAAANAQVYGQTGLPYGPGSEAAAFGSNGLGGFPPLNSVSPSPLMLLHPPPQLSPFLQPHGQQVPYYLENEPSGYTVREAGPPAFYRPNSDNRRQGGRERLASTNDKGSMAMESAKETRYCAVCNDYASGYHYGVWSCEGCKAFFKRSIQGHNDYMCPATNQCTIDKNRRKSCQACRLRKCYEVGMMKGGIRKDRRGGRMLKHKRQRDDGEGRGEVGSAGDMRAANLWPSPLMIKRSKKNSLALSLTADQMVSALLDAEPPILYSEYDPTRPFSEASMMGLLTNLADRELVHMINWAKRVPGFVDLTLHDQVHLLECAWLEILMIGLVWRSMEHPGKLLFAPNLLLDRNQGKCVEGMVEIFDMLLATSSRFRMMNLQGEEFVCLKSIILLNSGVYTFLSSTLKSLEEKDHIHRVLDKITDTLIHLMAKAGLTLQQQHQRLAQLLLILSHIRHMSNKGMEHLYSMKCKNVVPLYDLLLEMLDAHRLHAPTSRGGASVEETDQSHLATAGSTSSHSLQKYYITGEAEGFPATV
Procedure: The methodology for screening candidate compounds as NR2F6 agonists was as follows: For primary screening, hit criteria was ACT %>DMSO control+5*SD (DSO control) at 10 μM, or any compound with S/B>2. For rescreening, hit criteria was ACT %>DMSO control+3*SD (DSO control) in each replicate at 10 μM. For counterscreening, hit criteria was mean ACT<DMSO control+3*SD (DMSO control) with ERα transient transfection in duplicate at 10 μM.

[1] = Table 14, read-out: Renilla F4, cmpd/DMSO (mean)
[2] = Table 14, 10 uM, read-out: Renilla F4, cmpd/DMSO (mean)
[3] = first set screening, 10 μM, repeat 1, read-out: Renilla, cmpd/DMSO repeat 1
[4] = first set screening, 10 μM, repeat 2, read-out: Renilla, cmpd/DMSO repeat 2
[5] = repeat 1, read-out: Renilla_ERa, cmpd/DMSO repeat 1
[6] = repeat 2, read-out: Renilla_ERa, cmpd/DMSO repeat 2
[7] = first set screening, 10 μM, repeat 1
[8] = first set screening, 10 μM, repeat 2

| Compound | Firefly, cmpd/DMSO repeat 1 (NR2F6) | Firefly, cmpd/DMSO repeat 2 (NR2F6) | fold induction at 10 µM (Renilla; [3]) | fold induction at 10 µM (Renilla; [4]) | fold induction at 10 µM (Renilla_ERa; [5]) | fold induction at 10 µM (Renilla_ERa; [6]) | Firefly_ERa, cmpd/DMSO repeat 1 (ERα) | Firefly_ERa, cmpd/DMSO repeat 2 (ERα) | Renilla, cmpd/DMSO repeat 1 (Renilla; [7]) | Renilla, cmpd/DMSO repeat 2 (Renilla; [8]) | Renilla_ERa, cmpd/DMSO repeat 1 (Renilla_ERa; repeat 1) | Renilla_ERa, cmpd/DMSO repeat 2 (Renilla_ERa; repeat 2) | further results |
| --- | --- | --- | --- | --- | --- | --- | --- | --- | --- | --- | --- | --- | --- |
| Cc1ccn2cc(-c3ccc(F)cc3)cc2c1 [Compound 17] | 2.2 | 2.4 | 1.3 | 1.4 | 1.3 | 1 | 2.5 | 2.2 | – | – | – | – | Firefly F4, cmpd/DMSO (mean) (NR2F6; 2 uM): 1.9; Firefly F4, cmpd/DMSO (mean) (NR2F6; 10 uM): 1.2; Firefly F4, cmpd/DMSO (mean) (NR2F6; 40 uM): 1.3; fold induction at 2 µM (Renilla; [1]): 0.8; fold induction at 10 µM (Renilla; [2]): 1; fold induction at 40 µM (Renilla; [1]): 1; fold induction at 2 µM (HEK293 pGL4): 1.7; fold induction at 10 µM (HEK293 pGL4): 1.6; fold induction at 40 µM (HEK293 pGL4): 1.3 |
| O=C(Nc1ccc(Cl)cn1)c1ccc(I)cc1 [Compound 18] | 3.8 | 3.8 | 3.3 | 4.2 | 0.8 | 0.9 | 2.5 | 1.9 | – | – | – | – | – |
| COc1ccc(-c2cn3cccc(C)c3n2)cc1 [Compound 19] | 2.2 | 1.7 | 1.6 | 1.7 | 1.2 | 1 | 2.3 | 2.4 | – | – | – | – | Firefly F4, cmpd/DMSO (mean) (NR2F6; 2 uM): 1.7; Firefly F4, cmpd/DMSO (mean) (NR2F6; 10 uM): 1.0; Firefly F4, cmpd/DMSO (mean) (NR2F6; 40 uM): 0.5; fold induction at 2 µM (Renilla; [1]): 1.1; fold induction at 10 µM (Renilla; [2]): 1; fold induction at 40 µM (Renilla; [1]): 0.6; fold induction at 2 µM (HEK293 pGL4): 1.9; fold induction at 10 µM (HEK293 pGL4): 1.3; fold induction at 40 µM (HEK293 pGL4): 0.9 |
| Cc1ccnc(NC(=O)c2cc3sc4ccccc4c3s2)c1 [Compound 20] | 2.2 | 2.1 | – | – | – | – | 1.5 | 1.7 | 4.4 | 4.8 | 1.1 | 0.9 | – |
| CCn1c2c(c(=O)[nH]c1=O)C(c1ccc(C(C)C)cc1)C1=C(N2)c2ccccc2C1=O (stereo not shown) [Compound 21] | 2.4 | 2.2 | – | – | – | – | 1.1 | 1.0 | 3.8 | 3.0 | 1.1 | 0.9 | – |
| O=C(COc1ccccc1C(=O)N1CCOCC1)NCCc1ccccc1 [Compound 22] | 2.1 | 2.9 | 1.1 | 1.3 | 0.8 | 1.1 | 1.5 | 2.2 | – | – | – | – | Firefly F4, cmpd/DMSO (mean) (NR2F6; 2 uM): 1.3; Firefly F4, cmpd/DMSO (mean) (NR2F6; 10 uM): 1.4; Firefly F4, cmpd/DMSO (mean) (NR2F6; 40 uM): 0.6; fold induction at 2 µM (Renilla; [1]): 0.8; fold induction at 10 µM (Renilla; [2]): 1.1; fold induction at 40 µM (Renilla; [1]): 1; fold induction at 2 µM (HEK293 pGL4): 1.6; fold induction at 10 µM (HEK293 pGL4): 1; fold induction at 40 µM (HEK293 pGL4): 1.5 |
| Nc1nonc1-c1noc(-c2cccc(COc3ccc(Cl)cc3Cl)c2)n1 [Compound 23] | 3.0 | 1.9 | – | – | – | – | 1.8 | 1.8 | 4.6 | 3.4 | 1.1 | 1.2 | – |
| CCc1ccc(OCC(=O)Nc2cc(-c3nc4cc(C)ccc4o3)ccc2C)cc1 [Compound 24] | 2.0 | 2.3 | – | – | – | – | 1.3 | 1.6 | 2.4 | 2.2 | 0.9 | 1.0 | – |
| O=c1[nH]c(CS(=O)(=O)c2ccccc2)nc2sc3c(c12)CCCC3 [Compound 25] | 2.4 | 1.9 | – | – | – | – | 1.3 | 0.7 | 3.1 | 2.1 | 0.9 | 1.0 | – |
| Cc1cc(NC(=O)CCS(=O)(=O)c2nc(-c3ccc4c(c3)OCO4)cc(C(F)(F)F)n2)no1 [Compound C1] | 3.4 | 4.1 | 4.1 | 1.5 | 1.3 | 1.2 | 1.0 | 1.0 | – | – | – | – | Firefly F4, cmpd/DMSO (mean) (NR2F6; 2 uM): 0.5; Firefly F4, cmpd/DMSO (mean) (NR2F6; 10 uM): 0.5; Firefly F4, cmpd/DMSO (mean) (NR2F6; 40 uM): 0.4; activity (in words) (NR2F6; screening result): particularly good activity; fold induction at 2 µM (Renilla; [1]): 2.1; fold induction at 10 µM (Renilla; [2]): 0.2; fold induction at 40 µM (Renilla; [1]): 0.2; fold induction at 2 µM (HEK293 pGL4): 0.7; fold induction at 10 µM (HEK293 pGL4): 0.7; fold induction at 40 µM (HEK293 pGL4): 0.6 |
| COc1ccc(-c2cc(C(F)(F)F)nc(S(=O)(=O)CCCC(=O)Nc3sc4c(c3C(N)=O)CCCC4)n2)cc1OC [Compound C2] | 2.7 | 2.2 | 6 | 5.3 | 1.7 | 1.6 | 1.0 | 0.8 | – | – | – | – | – |
| COCCNC(=O)c1ccc2c(c1)N=C(C)c1cc(C)ccc1S2 [Compound C8] | 2.1 | 2.8 | 3.4 | 3.1 | 1 | 1.1 | 1.2 | 1.2 | – | – | – | – | – |
| CNC(=O)c1ccc2c(c1)N=C(C)c1cc(C)ccc1S2 [Compound C9] | 2.7 | 1.9 | 2.4 | 2.5 | 0.9 | 1 | 2.5 | 2.4 | – | – | – | – | – |
| COc1cc(Nc2c3c(nc4ccc(Cl)cc24)CCC3)cc(OC)c1OC [Compound C10] | 2.1 | 2.6 | 3.1 | 1.6 | 0.7 | 0.8 | 1.0 | 1.3 | – | – | – | – | – |
| CCn1c(=O)c2cc(C(=O)Nc3ccc4c(C)cc(=O)oc4c3)sc2c2ccccc21 [Compound C16] | 2.7 | 2.3 | 3.9 | 3.2 | 0.9 | 1.1 | 1.0 | 0.9 | – | – | – | – | – |
